From patent US12415803B2, “Fused imidazopyridines as reversible inhibitors of Brutons Tyrosine Kinase (BTK)” (Merck Patent GmbH, priority 2018, dated 2025)

How the values were obtained:
full-length human BTK = full-length human BTK (Homo sapiens (Human), UniProt Q06187); experiment: BTK IC50 Enzyme Assay (microfluidic off-chip mobility shift kinase assay); assay type: biochemical; conditions: Btk Enzymatic IC50 Assay, 90 min at 27 C;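 also: Read-out separates phosphorylated peptide product from substrate by their charge-to-mass difference, with IC50 fitted from log inhibitor concentration against percent enzyme activity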
Btk [1] = molecular target: T1, Btk (Homo sapiens (Human), UniProt Q06187); experiment: Btk PBMC IC50 Cell Assay (anti-IgM-induced CD69 expression on B cells); assay type: cell-based; conditions: anti-IgM-induced CD69 expression on CD19 positive cells in human PBMCs;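 also: freshly isolated human PBMCs, IC50 from concentration-response of the share of CD19+ cells expressing CD69 after anti-IgM BCR stimulation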
Btk [2] = molecular target: T1, Btk; experiment: Time Dependent Human Whole Blood IC50 Assay; assay type: cell-based; conditions: read-out: Assay C (IC50)

T1 sequence (Q06187 whole entry): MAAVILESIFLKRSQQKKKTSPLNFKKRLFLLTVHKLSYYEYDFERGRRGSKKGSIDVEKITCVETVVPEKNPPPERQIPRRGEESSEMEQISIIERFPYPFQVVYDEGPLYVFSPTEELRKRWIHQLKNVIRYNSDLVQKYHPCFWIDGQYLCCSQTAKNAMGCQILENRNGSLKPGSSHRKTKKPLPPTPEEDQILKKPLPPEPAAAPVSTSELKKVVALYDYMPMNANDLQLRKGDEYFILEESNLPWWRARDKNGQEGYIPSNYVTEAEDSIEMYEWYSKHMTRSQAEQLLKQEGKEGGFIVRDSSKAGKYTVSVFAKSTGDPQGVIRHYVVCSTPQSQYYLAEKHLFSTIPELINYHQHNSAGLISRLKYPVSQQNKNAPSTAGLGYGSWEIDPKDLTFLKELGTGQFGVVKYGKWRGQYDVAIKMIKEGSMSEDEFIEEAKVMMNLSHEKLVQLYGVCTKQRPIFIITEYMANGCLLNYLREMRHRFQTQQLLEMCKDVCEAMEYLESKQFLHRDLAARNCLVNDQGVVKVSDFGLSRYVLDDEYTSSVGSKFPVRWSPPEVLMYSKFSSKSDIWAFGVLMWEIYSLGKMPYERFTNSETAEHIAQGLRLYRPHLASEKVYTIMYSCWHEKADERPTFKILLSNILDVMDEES
Sequence of full-length human BTK (Q06187 whole entry): as above

Row | IC50 (full-length human BTK) [nM] | IC50 (Btk [1]) [nM] | IC50 (Btk [2]) [nM] | SMILES
1 | 1 to 10 | 1 to 10 | 10 to 100 | Cc1c(-c2nc3c(-c4ccc5c(c4)CCCCC5NC(=O)c4nc(C5(C)CC5)no4)ccnc3[nH]2)cnn1C(C)C (stereo not drawn) [Compound 26, 3-(1-Methyl-cyclopropyl)-[1,2,4]oxadiazole-5-carboxylic acid {2-[2-(1-isopropyl-5-methyl-1H-pyrazol-4-yl)-3H-imidazo[4,5-b]pyridin-7-yl]-6,7,8,9-tetrahydro-5H-benzocyclohepten-5-yl}-amide]
2 | < 1 | 1 to 10 | 1 to 10 | CCc1cc(-c2nc3nccc(-c4ccc5c(c4)CCCC[C@@H]5NC(=O)c4nnc(C(C)(C)C)o4)c3[nH]2)nn1C [Compound 89, 5-tert-butyl-N-[(5S)-2-[2-(5-ethyl-1-methyl-1H-pyrazol-3-yl)-1H-imidazo[4,5-b]pyridin-7-yl]-6,7,8,9-tetrahydro-5H-benzo[7]annulen-5-yl]-1,3,4-oxadiazole-2-carboxamide]
3 | < 1 | 1 to 10 | 1 to 10 | Cc1nn(C)c(C)c1-c1nc2c(-c3ccc4c(c3)CCCC[C@H]4NC(=O)c3noc(C4(C)CC4)n3)ccnc2[nH]1 [Compound 12, 5-(1-Methyl-cyclopropyl)-[1,2,4]oxadiazole-3-carboxylic acid {(R)-2-[2-(1,3,5-trimethyl-1H-pyrazol-4-yl)-3H-imidazo[4,5-b]pyridin-7-yl]-6,7,8,9-tetrahydro-5H-benzocyclohepten-5-yl}-amide]
